Assay results reported in patent publication US6407081B1, “Method for inhibiting cytokine production by cells” (Previsan AG, priority 1997, dated 2002).

Tests used:
[1] = system: interferon-γ; assay: Interferon-γ production by PHA-activated PBMC (Example 2); format: cell-based, human; details: for Interferon-γ content as a percentage of the control: PHA-activated PBMC, 72 h
Method: Peripheral mononuclear blood cells (PMBC) from five healthy human donors are isolated in the conventional manner from 50 ml of their blood and then purified by density gradient centrifugation (Lymphoprep). The cells (5.10^6 cells/ml) are activated by 0.3 μg/ml of phytohaemagglutinin (PHA) and cultured for 72 hours at 37° C. in the presence of various concentrations of ADA (20, 10, 5, 1, 0.2 and 0.04 μg/ml). The culture medium consists of RPMI 1640 complemented with 10% foetal calf serum and glutamine and contains mercaptoethanol. The ADA solutions are prepared in dimethyl sulfoxide (DMSO), the working concentration of DMSO during the experiments being 0.1%. Said experiments are performed on 96 well plates (200 μl/well) and, once the plates have been centrifuged at 1500 revolutions per minute for 10 minutes, the supernatants are harvested and the IL-5 content thereof analysed by an ELISA immunoenzymatic assay.
Starting from the same cell cultures as those used in Example 1, the presence of interferon-γ was investigated after treatment with the stated concentrations of ADA.

[2] = system: skin allograft; assay: Skin allograft rejection (Example 6); format: in vivo, C57BL/6 mice; details: ADA 50 mg/kg daily injection vs carrier control; FIG. 3
Method: Skin grafts, which are well known to be highly dependent upon T cells, are prepared from the tails of four female C57BL/6. CH-2^bm12 mice (Jackson Laboratory, Bar Harbor, Me., USA). These grafts are grafted onto the sides of C57BL/6 mice (Harlan, Zeist, Netherlands). A dressing is applied around the hole. This dressing is removed 10 days later and the grafts are inspected daily. The test mice receive a daily intraparenteral injection of 50 mg/kg bodyweight of ADA and the controls receive an equivalent quantity of the corresponding carrier until acute rejection is observed.
On the graph in FIG. 3, survival of the skin graft is plotted, in %, on the y-axis, while the number of days since the transplant is plotted on the x-axis.

[3] = system: IL-2; assay: IL-2 production by purified T lymphocytes (Example 3); format: cell-based, human; details: mean of 2 donors
Method: (§1) PBMC from three healthy donors are purified by density gradient […] (LymphoPrep). The T lymphocytes are obtained from 15.10^6 PBMC incubated for 20 to 30 minutes in a waterbath at 37° C. with 0.8 ml of a mixture of LymphoKwik® (One Lambda, Inc., CA, USA). This latter substance is a mixture of complement and specific antibody for antigen units of the cell membrane which lyses the unwanted cells (B lymphocytes, monocytes, etc.). The cells are centrifuged and then washed twice.
(§2) These cultures are treated with various concentrations of ADA.
(§3) In Examples 3 and 4, the results are stated as a percentage taking the medium without ADA as 100%. The concentrations corresponding to 100% are respectively 90,000 pg/ml for IL-2, 1100 pg/ml for IL-5, 1900 pg/ml for IFN-γ and 2870 pg/ml for TNF-α. The results are the mean of independent ELISA assays.

[4] = system: TNF-α; assay: TNF-α production by purified CD4 T lymphocytes stimulated by PMA + anti-CD28 (Example 4); format: cell-based, human; details: for TNF-α in % relative to control: purified CD4 T lymphocytes, PMA + anti-CD28, 5 donors
Method: (§4) Purified CD4 T lymphocytes (90% purity) stimulated by PMA (phorbol myristate acetate)+anti-CD28 antibodies from healthy donors are treated with various concentrations of ADA.
as §3

[5] = system: IFN-γ; assay: Interferon-γ production by purified CD4 T lymphocytes stimulated by PMA + anti-CD28 (Example 4); format: cell-based, human; details: for IFN-γ in % relative to control: purified CD4 T lymphocytes, PMA + anti-CD28, mean of 2 donors
Method: as §4, §3

[6] = system: IFN-γ; assay: Interferon-γ production by purified T lymphocytes (Example 3); format: cell-based, human; details: mean of 3 donors
Method: as §1, §2, §3

[7] = system: IL-5; assay: IL-5 production by purified T lymphocytes (Example 3); format: cell-based, human; details: mean of 2 donors
Method: as §1, §2, §3

[8] = system: IL-4; assay: In vivo serum IL-4 release after anti-CD3 145-2C11 mAb (Example 5); set-up: species or system BALB/C mice; details: ADA 100 mg/kg single injection one day before 145-2C11 mAb; sera at 2, 4, 8, 24 h; FIG. 2
Method: (§5) A single intraparenteral injection of azodicarbon-amide (ADA) at a dose of 100 mg/kg bodyweight or corresponding carrier is made into BALB/C mice (Harlan, Zeist, Netherlands) one day before intraparenteral inoculation of 25 μg of hamster 145-2C11 mAb, an anti-mouse CD3 mAb which brings about massive in vivo activation of polyclonal T cells, resulting in systemic cytokine release. Sera are collected 2, 4, 8 and 24 hours after the anti-CD3 treatment and the cytokine (IL-2, IL-4) levels are determined by an ELISA test (Genzyme).
(§6) FIGS. 1 and 2 are graphs showing, on the y-axis, the quantities of IL-2 and IL-4 in the serum as a mean of 5 test animals. […] The empty bars show the results obtained with the carrier and the shaded bars show those obtained with prior ADA treatment.

[9] = system: IL-2; assay: In vivo serum IL-2 release after anti-CD3 145-2C11 mAb (Example 5); set-up: species or system BALB/C mice; details: ADA 100 mg/kg single injection one day before 145-2C11 mAb; sera at 2, 4, 8, 24 h; FIG. 1
Method: as §5, §6

[10] = system: IL-5; assay: IL-5 production by purified CD4 T lymphocytes stimulated by PMA + anti-CD28 (Example 4); format: cell-based, human; details: for IL-5 in % relative to control: purified CD4 T lymphocytes, PMA + anti-CD28, 1 donor
Method: as §4, §3

[11] = 20 μg/ml of ADA, donors of Examples 3 and 4

NC(=O)N=NC(N)=O [ADA, azodicarbon-amide]
Interferon-γ content as a percentage of the control ([1]; ADA 0.04 μg/ml, Donor 1): 62 % of control | Interferon-γ content as a percentage of the control ([1]; ADA 0.04 μg/ml, Donor 2): 53 % of control | Interferon-γ content as a percentage of the control ([1]; ADA 0.04 μg/ml, Donor 3): 99 % of control | Interferon-γ content as a percentage of the control ([1]; ADA 0.04 μg/ml, Donor 4): 82 % of control | Interferon-γ content as a percentage of the control ([1]; ADA 0.04 μg/ml, Donor 5): 38 % of control | Interferon-γ content as a percentage of the control ([1]; ADA 0.04 μg/ml, Mean of donors): 67 % of control | Interferon-γ content as a percentage of the control ([1]; ADA 0.2 μg/ml, Donor 1): 112 % of control | Interferon-γ content as a percentage of the control ([1]; ADA 0.2 μg/ml, Donor 2): 111 % of control | Interferon-γ content as a percentage of the control ([1]; ADA 0.2 μg/ml, Donor 3): 70 % of control | Interferon-γ content as a percentage of the control ([1]; ADA 0.2 μg/ml, Mean of donors (donors 4, 5 not given)): 98 % of control | Interferon-γ content as a percentage of the control ([1]; ADA 1 μg/ml, Donor 1): 87 % of control | Interferon-γ content as a percentage of the control ([1]; ADA 1 μg/ml, Donor 2): 98 % of control | Interferon-γ content as a percentage of the control ([1]; ADA 1 μg/ml, Donor 3): 49 % of control | Interferon-γ content as a percentage of the control ([1]; ADA 1 μg/ml, Mean of donors (donors 4, 5 not given)): 78 % of control | Interferon-γ content as a percentage of the control ([1]; ADA 5 μg/ml, Donor 1): 68 % of control | Interferon-γ content as a percentage of the control ([1]; ADA 5 μg/ml, Donor 2): 128 % of control | Interferon-γ content as a percentage of the control ([1]; ADA 5 μg/ml, Donor 3): 62 % of control | Interferon-γ content as a percentage of the control ([1]; ADA 5 μg/ml, Donor 4): 57 % of control | Interferon-γ content as a percentage of the control ([1]; ADA 5 μg/ml, Donor 5): 25 % of control | Interferon-γ content as a percentage of the control ([1]; ADA 5 μg/ml, Mean of donors): 68 % of control | Interferon-γ content as a percentage of the control ([1]; ADA 10 μg/ml, Donor 1): 23 % of control | Interferon-γ content as a percentage of the control ([1]; ADA 10 μg/ml, Donor 2): 169 % of control | Interferon-γ content as a percentage of the control ([1]; ADA 10 μg/ml, Donor 3): 43 % of control | Interferon-γ content as a percentage of the control ([1]; ADA 10 μg/ml, Mean of donors (donors 4, 5 not given)): 78 % of control | Interferon-γ content as a percentage of the control ([1]; ADA 20 μg/ml, Donor 1): 21 % of control | Interferon-γ content as a percentage of the control ([1]; ADA 20 μg/ml, Donor 2): 86 % of control | Interferon-γ content as a percentage of the control ([1]; ADA 20 μg/ml, Donor 3): 40 % of control | Interferon-γ content as a percentage of the control ([1]; ADA 20 μg/ml, Donor 4): 25 % of control | Interferon-γ content as a percentage of the control ([1]; ADA 20 μg/ml, Donor 5): 16 % of control | Interferon-γ content as a percentage of the control ([1]; ADA 20 μg/ml, Mean of donors): 38 % of control | inhibition of interferon-γ production, number of donors ([1]; PBMC of 5 donors, ADA 0.04-20 μg/ml): inhibition is observed in 4 out of 5 donors | rejection of the skin allograft [2]: significantly delayed | IL-2 in % relative to control ([3]; ADA 1 μg/ml): 68 % relative to control | IL-2 in % relative to control ([3]; ADA 5 μg/ml): 27 % relative to control | IL-2 in % relative to control ([3]; ADA 10 μg/ml): 9 % relative to control | IL-2 in % relative to control ([3]; ADA 20 μg/ml): 3 % relative to control | production of TNF-α ([4]; 20 μg/ml of ADA, donors of Example 4): inhibited | TNF-α in % relative to control ([4]; ADA 1 μg/ml): 90 % relative to control | TNF-α in % relative to control ([4]; ADA 5 μg/ml): 48 % relative to control | TNF-α in % relative to control ([4]; ADA 10 μg/ml): 32 % relative to control | TNF-α in % relative to control ([4]; ADA 20 μg/ml): 14 % relative to control | production of interferon-γ [5, 11]: inhibited | IFN-γ in % relative to control ([5]; ADA 1 μg/ml): 73 % relative to control | IFN-γ in % relative to control ([5]; ADA 5 μg/ml): 36 % relative to control | IFN-γ in % relative to control ([5]; ADA 10 μg/ml): 15 % relative to control | IFN-γ in % relative to control ([5]; ADA 20 μg/ml): 12 % relative to control | IFN-γ in % relative to control ([6]; ADA 1 μg/ml): 82 % relative to control | IFN-γ in % relative to control ([6]; ADA 5 μg/ml): 34 % relative to control | IFN-γ in % relative to control ([6]; ADA 10 μg/ml): 14 % relative to control | IFN-γ in % relative to control ([6]; ADA 20 μg/ml): 4 % relative to control | IL-5 in % relative to control ([7]; ADA 1 μg/ml): 67 % relative to control | IL-5 in % relative to control ([7]; ADA 5 μg/ml): 60 % relative to control | IL-5 in % relative to control ([7]; ADA 10 μg/ml): 40 % relative to control | IL-5 in % relative to control ([7]; ADA 20 μg/ml): 16 % relative to control | release of IL-4 into serum [8]: significant reduction | release of IL-2 into serum [9]: significant reduction | production of IL-5 [10, 11]: inhibited | IL-5 in % relative to control ([10]; ADA 1 μg/ml): 69 % relative to control | IL-5 in % relative to control ([10]; ADA 5 μg/ml): 45 % relative to control | IL-5 in % relative to control ([10]; ADA 10 μg/ml): 43 % relative to control | IL-5 in % relative to control ([10]; ADA 20 μg/ml): 38 % relative to control
